The target in assay [1] is T1, Aurora kinase A (Homo sapiens, UniProt O14965).
T1 sequence (O14965 whole entry): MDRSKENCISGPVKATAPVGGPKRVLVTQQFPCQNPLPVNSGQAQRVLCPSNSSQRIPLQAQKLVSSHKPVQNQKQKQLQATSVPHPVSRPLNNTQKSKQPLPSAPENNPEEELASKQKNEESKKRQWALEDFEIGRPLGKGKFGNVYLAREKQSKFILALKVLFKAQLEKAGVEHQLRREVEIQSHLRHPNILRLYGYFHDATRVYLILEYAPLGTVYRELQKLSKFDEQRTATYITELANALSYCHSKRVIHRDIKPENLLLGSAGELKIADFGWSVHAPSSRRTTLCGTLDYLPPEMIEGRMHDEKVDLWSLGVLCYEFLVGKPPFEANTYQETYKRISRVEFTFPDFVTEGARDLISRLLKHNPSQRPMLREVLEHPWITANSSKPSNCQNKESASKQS
In words: Inhibition of recombinant human Aurora A (1 to 403 residues) expressed in Escherichia coli using STK-substrate 2-biotin as substrate incubated for 60 mins in presence of 0.48 uM ATP by HTRF assay.

The test system of assay [2] is MDA-MB-231. In words: Induction of apoptosis in human MDA-MB-231 cells assessed as necrotic cells at 1.25 uM incubated for 24 hrs by Annexin V-FITC staining based flow cytometry (Rvb= 1.67%). The assay is classed as functional. Background: A flow cytometer gives signals particle by particle.
In assay [3] the test system is MDA-MB-231. In words: Antitumor activity against human MDA-MB-231 cells xenografted in BALB/c nude mouse assessed as tumor growth inhibition at 15 mg/kg,ip every 2days for 20 days. The assay is classed as functional. The conditions noted are these: MDA-MB-231, 480 h, time 20 day, read-out: TGI.
The target of assay [4] is Aurora kinase B (Homo sapiens) (UniProt Q96GD4). As to the kind of experiment: Binding affinity to Aurora B in human MDA-MB-231 cells assessed as thermal stability at 46 to 62 degreeC at 1 uM incubated for 1 hrs by […] analysis. The assay is classed as cell-based.

Molecules are shown by their SMILES. Activity calls are given as the source filed them. No cut-off for these calls is given here.

From ChEMBL document CHEMBL5370554, “Discovery of a first-in-class Aurora A covalent inhibitor for the treatment of triple negative breast cancer” (Eur J Med Chem, 2023) come the findings set out here.

Chain of Aurora kinase B (Homo sapiens) (Q96GD4 whole entry): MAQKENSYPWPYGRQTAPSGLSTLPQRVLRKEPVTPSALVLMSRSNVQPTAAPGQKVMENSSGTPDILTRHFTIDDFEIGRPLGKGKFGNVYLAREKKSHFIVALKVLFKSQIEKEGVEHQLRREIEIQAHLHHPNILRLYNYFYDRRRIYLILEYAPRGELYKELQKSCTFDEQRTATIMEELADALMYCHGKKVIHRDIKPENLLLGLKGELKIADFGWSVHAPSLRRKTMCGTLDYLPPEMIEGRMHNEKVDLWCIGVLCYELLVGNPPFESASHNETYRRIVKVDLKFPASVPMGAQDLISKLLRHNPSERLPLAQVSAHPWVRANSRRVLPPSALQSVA

As a reminder, the IC50 is the midpoint of a concentration-inhibition curve. `C=CC(=O)Nc1ccc(-c2nc(Nc3cc(C)[nH]n3)c3ccc(N4CCN(C)CC4)cc3n2)cc1`: in assay [1], the IC50 turned out to be 3.41 nM. In addition, the Activity in assay [2] is recorded as 1.83%. Further, in assay [3], the inhibition in vivo at 15 mg/kg turned out to be 32.3%. For the same compound, the outcome in assay [4] was inactive.
